From ChEMBL document CHEMBL5233269, “Anticancer potential of spirocompounds in medicinal chemistry: A pentennial expedition” (Eur J Med Chem, 2021) come the findings set out here.

Broadly, the IC50 is the point on the concentration scale where inhibition reaches its midpoint. A word on the inhibition: it is the drop in the measured response relative to a control, in per cent.

One data set relates to A-431. The data set is described as follows: Anticancer activity against human A-431 cells. Type of data set: functional, cell-based.
The test system of data set [1] is MCF7. The data set is described as follows: Anticancer activity against human MCF7 cells assessed as reduction of cell growth. The data set is classed as functional, cell-based.
Data set [2] has as its system PC-3. The data set is described as follows: Anticancer activity against human PC-3 cells assessed as reduction of cell growth. The data set is classed as functional, cell-based.
Data set [3] is described as follows: Anticancer activity against human MCF-10A cells assessed as reduction of cell growth. The data set is classed as toxicity, cell-based.
Data set [4] concerns the target cGMP-specific 3',5'-cyclic phosphodiesterase (Homo sapiens) (UniProt O76074). Nature of the data set: Inhibition of PDE5 (unknown origin) at 3 nM relative to control.
Data set [5] deals with A549. The data set is described as follows: Antiproliferative activity against human A549 cells. The data set is classed as functional, cell-based.
Data set [6] relates to MCF7. Nature of the data set: Antiproliferative activity against human MCF7 cells. Type of data set: functional, cell-based.
Data set [7] concerns HepG2. Nature of the data set: Antiproliferative activity against human HepG2 cells incubated for 2 days by MTT assay. Type of data set: functional, cell-based. The conditions noted are these: HepG2, 48 h. On the technique in general: Tetrazolium assays rely on reduction of a dye to a coloured formazan, in cell work by metabolically active cells.
The test system of data set [8] is MCF7. The data set is described as follows: Antiproliferative activity against human MCF7 cells incubated for 2 days by MTT assay. The conditions noted are these: MCF7, 48 h. The data set is classed as functional, cell-based.
Another data set has as its system HT-29. Nature of the data set: Antiproliferative activity against human HT-29 cells incubated for 2 days by MTT assay. The data set is classed as functional, cell-based. As to conditions: HT-29, 48 h.
Another data set has as its system T47D. The data set is described as follows: Antiproliferative activity against human T47D cells incubated for 2 days by MTT assay. Type of data set: functional, cell-based. As to conditions: 48 h.
The subject of another data set is HFF. Nature of the data set: Antiproliferative activity against human HFF cells incubated for 2 days by MTT assay. As to conditions: 48 h. Type of data set: functional, cell-based.
Data set [9] deals with MCF7. Nature of the data set: Anticancer activity against human MCF7 cells incubated for 48 hrs by MTT assay. Type of data set: functional, cell-based. The conditions noted are these: MCF7, 48 h.
Data set [10] deals with A549. The data set is described as follows: Anticancer activity against human A549 cells incubated for 48 hrs by MTT assay. Type of data set: functional, cell-based. The conditions noted are these: A549, 48 h.
The subject of data set [11] is HepG2. The data set is described as follows: Anticancer activity against human HepG2 cells incubated for 48 hrs by MTT assay. Type of data set: functional, cell-based. The conditions noted are these: HepG2, 48 h.
For another data set, the system named is HCT-116. The data set is described as follows: Anticancer activity against human HCT-116 cells incubated for 48 hrs by MTT assay. The data set is classed as functional, cell-based. As to conditions: HCT-116, 48 h.
The nature of data set [12]: Anticancer activity against human U87 cells incubated for 48 hrs by MTT assay. Type of data set: functional, cell-based, U-87MG ATCC. The conditions noted are these: U-87 MG.
The next data set has as its system B16-F10. Nature of the data set: Anticancer activity against mouse B16-F10 cells. The data set is classed as functional, cell-based.
The test system of data set [13] is HeLa. Nature of the data set: Anticancer activity against human HeLa cells assessed as inhibition of cell proliferation. Type of data set: functional, cell-based.
In data set [14] the test system is MCF7. The data set is described as follows: Antiproliferative activity against human MCF7 cells assessed as inhibition of cell viability. The data set is classed as functional, cell-based.
For the next data set, the system named is K562. The data set is described as follows: Antiproliferative activity against human K562 cells assessed as inhibition of cell viability. The data set is classed as functional, cell-based.
The target in data set [15] is Tumour suppressor p53/oncoprotein Mdm2 (Homo sapiens) (UniProt P04637+Q00987). Nature of the data set: Inhibition of MDM2/p53 (unknown origin) interaction at 10 uM relative to control. Type of data set: protein assay.
Tumour suppressor p53/oncoprotein Mdm2 (Homo sapiens), sequence (P04637 whole entry, looked up): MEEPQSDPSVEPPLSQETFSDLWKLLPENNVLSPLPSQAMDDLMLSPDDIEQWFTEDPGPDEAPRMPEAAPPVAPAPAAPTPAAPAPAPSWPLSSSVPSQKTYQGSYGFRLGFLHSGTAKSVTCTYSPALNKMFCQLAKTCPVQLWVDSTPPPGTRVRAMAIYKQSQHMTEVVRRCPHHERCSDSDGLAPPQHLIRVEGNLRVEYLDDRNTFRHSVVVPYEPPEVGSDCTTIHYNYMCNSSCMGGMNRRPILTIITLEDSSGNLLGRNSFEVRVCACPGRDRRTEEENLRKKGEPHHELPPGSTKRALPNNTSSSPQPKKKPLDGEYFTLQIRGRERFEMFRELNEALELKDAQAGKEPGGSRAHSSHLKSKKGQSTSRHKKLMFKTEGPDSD
Tumour suppressor p53/oncoprotein Mdm2 (Homo sapiens), sequence (Q00987 whole entry, looked up): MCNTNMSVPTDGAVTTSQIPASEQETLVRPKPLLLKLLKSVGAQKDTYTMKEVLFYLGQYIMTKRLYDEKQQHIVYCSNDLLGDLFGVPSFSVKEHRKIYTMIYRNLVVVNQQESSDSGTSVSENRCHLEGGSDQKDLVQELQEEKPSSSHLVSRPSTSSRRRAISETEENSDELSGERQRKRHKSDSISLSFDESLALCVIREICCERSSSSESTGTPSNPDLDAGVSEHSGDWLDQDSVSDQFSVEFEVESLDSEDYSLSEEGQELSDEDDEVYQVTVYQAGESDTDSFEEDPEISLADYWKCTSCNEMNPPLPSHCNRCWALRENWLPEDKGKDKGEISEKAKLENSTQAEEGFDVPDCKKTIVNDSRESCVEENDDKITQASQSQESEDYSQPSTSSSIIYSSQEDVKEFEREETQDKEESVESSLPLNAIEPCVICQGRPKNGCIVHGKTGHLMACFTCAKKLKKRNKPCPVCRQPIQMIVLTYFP
A further data set has as its system MDA-MB-231. The data set is described as follows: Antiproliferative activity against human MDA-MB-231 cells. Type of data set: functional, cell-based.
The test system of data set [16] is HeLa. The data set is described as follows: Antiproliferative activity against human HeLa cells. Type of data set: functional, cell-based.
Data set [17] relates to A549. The data set is described as follows: Antiproliferative activity against human A549 cells assessed as reduction in cell viability. The data set is classed as functional, cell-based.
In data set [18] the test system is MCF7. The data set is described as follows: Antiproliferative activity against human MCF7 cells assessed as reduction in cell viability. Type of data set: functional, cell-based.
Data set [19] has as its system PC-3. Nature of the data set: Anticancer activity against human PC-3 cells at 100 uM relative to control. The data set is classed as functional.
For a further data set, the system named is LNCaP. The data set is described as follows: Anticancer activity against human LNCaP cells at 100 uM relative to control. Type of data set: functional.
The nature of data set [20]: Cytotoxicity against green monkey Vero cells. The data set is classed as toxicity, cell-based. As to conditions: green monkey (Chlorocebus sabaeus).
Data set [21] has as its system HeLa. Nature of the data set: Cytotoxicity against human HeLa cells. Type of data set: functional, cell-based.
For data set [22], the system named is HepG2. Nature of the data set: Anticancer activity against human HepG2 cells at 200 microg/ml measured after 48 hrs relative to control. Type of data set: functional.
A further data set deals with 4T1. The data set is described as follows: Anticancer activity against mouse 4T1 cells at 200 microg/ml measured after 48 hrs relative to control. The data set is classed as functional.

Each structure is given as a SMILES string. Values after ≈ are worked out from the molar mass of the structure shown.

Consider `CC1(C)CC(=O)C2C(C1)N(c1ccccn1)C(=O)C21c2ccccc2NC2C(=O)CC(C)(C)CC21` (stereo not drawn), for which the IC50 in the data set on A-431 was determined as 42.4 µM; with MCF7 [1], 9.88 µM; in the data set on PC-3 [2], 73.1 µM; in [3], 34.6 µM.

With `O=C1NC2(CCCCC2)Nc2ccccc21`, in [4], the inhibition was determined as 100%.

Turning to `N#CC1=C(N)Oc2c(c(=O)oc3ccccc23)C12C(=O)N(Cc1cccc(Br)c1)c1ccccc12` (stereo not drawn), the 50% inhibitory concentration (IC50) in the data set with A549 [5] is 29.3 µM; in the data set on MCF7 [6], 16.2 µM.

As to `COc1ccc(C2=NOC3(Cc4ccccc4C3=O)C2c2ccc(S(C)(=O)=O)cc2)cc1OC` (stereo not drawn), the IC50 came to 0.059 µM with HepG2 [7]; 53.7 µM with MCF7 [8]; 94.6 µM in the data set on HT-29; 21.4 µM in the data set on T47D; 33.9 µM with HFF.

In the case of `CCOC(=O)[C@H]1[C@@H](NO)[C@@H]2c3ccccc3OC(C)(C)[C@H]2[C@H](O)[C@]12C(=O)Nc1ccc(F)cc12`, the IC50 in the data set on MCF7 [9] worked out at 2.5 µM; with A549 [10] it was 4.8 µM; in the data set with HepG2 [11], 16.2 µM; with HCT-116, 25.4 µM; in [12], 41.9 µM.

For `Cc1cc(Cl)ccc1[C@@H]1N(C)C2(CC13C(=O)N(C)C(=O)N(C)C3=O)C(=O)c1ccccc1C2=O`, the IC50 in the data set on B16-F10 came out at 8.4 µM; in the data set with HeLa [13], 434 µM.

Consider `COc1ccc(/C=C2\CCCC3(C2=O)[C@@H]2CCCN2[C@@]2(C(=O)Nc4ccccc42)[C@H]3c2ccc(OC)cc2)cc1` (stereo partly drawn), for which the IC50 with MCF7 [14] is 18.6 µM; in the data set on K562 it was 13.4 µM.

`CCOC(=O)C1CN(C(=O)N2CCCCC2)C2(C(=O)Nc3ccccc32)C1c1ccccc1O` (stereo not drawn) registered an inhibition in data set [15] of 57.7%.

`COc1ccc(-n2nc(-c3ccccc3)nc2N2C(=O)COC23C=CC(=O)C=C3)cc1`: the concentration for half-maximal inhibition (IC50) in the data set with MDA-MB-231 is 0.0277 µM; in the data set with HeLa [16], 0.01 µM; in the data set with A549 [17], 0.0268 µM; in the data set on MCF7 [18], 0.0888 µM.

As for `O=C(/C=C/c1ccc(F)cc1)c1ccc(OP2(Oc3ccc(C(=O)/C=C/c4ccc(F)cc4)cc3)=NP3(=NP4(=N2)Oc2ccccc2-c2ccccc2O4)Oc2ccccc2-c2ccccc2O3)cc1`, the Activity in the data set on PC-3 [19] was found to be 35.93%; in the data set with LNCaP, 57.66%.

In the case of `O=C(c1ccccn1)[C@@H]1[C@@H](c2ccccc2Cl)[C@H](c2ccccc2)NC12C(=O)Nc1ccccc12` (stereo partly drawn), the IC50 is over 110 µg/mL in [20] and 70 µg/mL (≈ 146 µM) with HeLa [21].

For `CN1C(=O)N(C)C(=O)C2(CC3(C(=O)c4ccccc4C3=O)N(C)[C@H]2c2ccc(Br)cc2)C1=O`, the concentration for half-maximal inhibition (IC50) in the data set on B16-F10 was determined as 5.2 µM; in the data set with HeLa [13], 7.3 µM.

The compound `CCOC(=O)N1CCC2(CC1)NC(=O)c1ccccc1N2` gave an inhibition in data set [4] of 100%.

For the compound `CN1C(=O)N(C)C(=O)C2(CC3(C(=O)c4ccccc4C3=O)N(C)[C@H]2c2ccccc2)C1=O`, the figures for the IC50 in the data set on B16-F10 and in the data set with HeLa [13] were 3.5 µM and 4.3 µM, respectively.

Take `Cc1ccc2c(c1)[C@]1(C(=O)N2)[C@@H](C(=O)c2ccccc2)[C@]2(C(=O)Nc3ccccc32)[C@@H]2c3ccccc3CCN21`: the inhibition at 200 µg/mL came out at 66.7% in the data set with HepG2 [22] and 20.8% in the data set with 4T1.

As to `CCC(C)N1C(=O)C2(C(C#N)=C(N)Oc3c2c(=O)oc2ccccc32)c2ccccc21` (stereo not drawn), the IC50 with A549 [5] came to 34.1 µM; with MCF7 [6] it was 37.6 µM.

In the case of `COc1cccc(N2C(=O)C3(c4ccccc4NC4C(=O)CC(C)(C)CC43)C3C(=O)CC(C)(C)CC32)c1` (stereo not drawn), the half-maximal inhibitory concentration (IC50) with A-431 came to 55.6 µM; in the data set on MCF7 [1], 9.62 µM; in the data set with PC-3 [2], 86.1 µM; in data set [3], 48.1 µM.
